According to PubChem BioAssay AID1259411 (Chemical Carcinogenesis Research Information System (CCRIS), 2018):
Activity calls are given as the source filed them. How the calls were made is not given here.

Tested on: rodent carcinogenicity bioassays, tumor incidence
Assay: CCRIS carcinogenicity studies
Summary of the method: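 Archive of carcinogenicity, mutagenicity, tumor promotion and tumor inhibition results drawn from journals, NCI reports and other sources, expert-reviewed; covers 1985-2011 and is no longer updated.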

Measured: carcinogen call

ClCCl
inactive: Species: HAMSTER, Strain/Sex: SYRIAN/FEMALE, Route: INHALATION, Dose: 0, 500, 1500, 3500 PPM IN AIR 6H/D 5D/WK FOR 104 WK (STUDY DURATION: 2 YR), Dose: 0, 500, 1500, 3500 PPM IN AIR 6H/D 5D/WK FOR 104 WK (STUDY DURATION: 2 YR) inactive; negative | Species: HAMSTER, Strain/Sex: SYRIAN/MALE, Route: INHALATION, Dose: 0, 500, 1500, 3500 PPM IN AIR 6H/D 5D/WK FOR 104 WK (STUDY DURATION: 2 YR), Dose: 0, 500, 1500, 3500 PPM IN AIR 6H/D 5D/WK FOR 104 WK (STUDY DURATION: 2 YR) inactive; negative | Species: MOUSE, Strain/Sex: B6C3F1/FEMALE, Route: INHALATION, Dose: 0, 2000 PPM 6 HR/D 5 D/WK FOR 26 WK FOLLOWING A 78 WK EXPOSURE TO CHAMBER AIR (STUDY DURATION: 104 WK) inactive; negative | Species: MOUSE, Strain/Sex: B6C3F1/FEMALE, Route: INHALATION, Dose: 0, 2000 PPM 6 HR/D 5 D/WK FOR 52 WK FOLLOWING A 52 WK EXPOSURE TO CHAMBER AIR (STUDY DURATION: 104 WK) inactive; negative | Species: MOUSE, Strain/Sex: SWISS/FEMALE, Route: GAVAGE, Dose: 0, 100, 500 MG/KG IN OLIVE OIL 1/D 5 D/WK FOR 64 WK (STUDY DURATION: LIFETIME), Dose: 0, 100, 500 MG/KG IN OLIVE OIL 1/D 5 D/WK FOR 64 WK (STUDY DURATION: LIFETIME) inactive; negative | Species: RAT, Strain/Sex: SPRAGUE-DAWLEY/FEMALE, Route: GAVAGE, Dose: 0, 100, 500 MG/KG IN OLIVE OIL 1/D 5 D/WK FOR 64 WK (STUDY DURATION: LIFETIME), Dose: 0, 100, 500 MG/KG IN OLIVE OIL 1/D 5 D/WK FOR 64 WK (STUDY DURATION: LIFETIME) inactive; negative | Species: RAT, Strain/Sex: SPRAGUE-DAWLEY/FEMALE, Route: INHALATION, Dose: 0, 100 PPM 4 HR/D 5 D/WK FOR 7 WK THEN 7 HR/D 5 D/WK FOR 97 WK BEGINNING WHEN RATS WERE 12 DAY OLD EMBRYOS (STUDY DURATI inactive; negative | Species: RAT, Strain/Sex: SPRAGUE-DAWLEY/FEMALE, Route: INHALATION, Dose: 0, 500, 1500, 3500 PPM IN AIR 6H/D 5D/WK FOR 104 WK (STUDY DURATION: 2 YR), Dose: 0, 500, 1500, 3500 PPM IN AIR 6H/D 5D/WK FOR 104 WK (STUDY DURATION: 2 YR) inactive; negative | Species: RAT, Strain/Sex: SPRAGUE-DAWLEY/MALE, Route: GAVAGE, Dose: 0, 100, 500 MG/KG IN OLIVE OIL 1/D 5 D/WK FOR 64 WK (STUDY DURATION: LIFETIME), Dose: 0, 100, 500 MG/KG IN OLIVE OIL 1/D 5 D/WK FOR 64 WK (STUDY DURATION: LIFETIME) inactive; negative | Species: RAT, Strain/Sex: SPRAGUE-DAWLEY/MALE, Route: INHALATION, Dose: 0, 100 PPM 4 HR/D 5 D/WK FOR 7 WK THEN 7 HR/D 5 D/WK FOR 97 WK BEGINNING WHEN RATS WERE 12 DAY OLD EMBRYOS (STUDY DURATI inactive; negative
active: Species: MOUSE, Strain/Sex: B6C3F1/FEMALE, Route: INHALATION, Dose: 0, 2000, 4000 PPM 6 HR/D, 5 D/WK FOR 102 WK, Dose: 0, 2000, 4000 PPM 6 HR/D, 5 D/WK FOR 102 WK, Tumor Site: Type of Lesion: LUNG: ALVEOLAR/BRONCHIOLAR ADENOMA, ALVEOLAR/BRONCHIOLAR CARCINOMA, LIVER: HEPATOCELLULAR ADENOMA, HEPATOCELLULAR CARCIN active; positive | Species: MOUSE, Strain/Sex: B6C3F1/FEMALE, Route: INHALATION, Dose: 0, 2000 PPM 6 HR/D 5 D/WK FOR 26 WK FOLLOWED BY CHAMBER AIR EXPOSURE FOR 78 WK (STUDY DURATION: 104 WK), Tumor Site: Type of Lesion: LUNG: ADENOMA OR CARCINOMA active; positive | Species: MOUSE, Strain/Sex: B6C3F1/FEMALE, Route: INHALATION, Dose: 0, 2000 PPM 6 HR/D 5 D/WK FOR 52 WK FOLLOWED BY CHAMBER AIR EXPOSURE FOR 52 WK (STUDY DURATION: 104 WK), Tumor Site: Type of Lesion: LUNG: ADENOMA OR CARCINOMA, LIVER: ADENOMA OR CARCINOMA active; positive | Species: MOUSE, Strain/Sex: B6C3F1/FEMALE, Route: INHALATION, Dose: 0, 2000 PPM 6 HR/D 5 D/WK FOR 78 WK FOLLOWED BY CHAMBER AIR EXPOSURE FOR 26 WK (STUDY DURATION: 104 WK), Tumor Site: Type of Lesion: LUNG: ADENOMA OR CARCINOMA, LIVER: ADENOMA OR CARCINOMA active; positive | Species: MOUSE, Strain/Sex: B6C3F1/FEMALE, Route: INHALATION, Dose: 0, 2000 PPM 6 HR/D 5 D/WK FOR 78 WK FOLLOWING A 26 WK EXPOSURE TO CHAMBER AIR (STUDY DURATION: 104 WK), Tumor Site: Type of Lesion: LUNG: ADENOMA OR CARCINOMA, LIVER: ADENOMA OR CARCINOMA active; positive | Species: MOUSE, Strain/Sex: B6C3F1/FEMALE, Route: INHALATION, Dose: 0, 2000 PPM 6 HR/D 5 D/WK FOR 104 WK (STUDY DURATION: 104 WK), Tumor Site: Type of Lesion: LIVER: ADENOMA, CARCINOMA, LUNG: ADENOMA, CARCINOMA active; positive | Species: MOUSE, Strain/Sex: B6C3F1/FEMALE, Route: INHALATION, Dose: 0, 2000 PPM 6 HR/D 5 D/WK FOR 104 WK (STUDY DURATION: 104 WK), Tumor Site: Type of Lesion: LUNG: ADENOMA OR CARCINOMA, LIVER: ADENOMA OR CARCINOMA active; positive | Species: MOUSE, Strain/Sex: B6C3F1/MALE, Route: INHALATION, Dose: 0, 2000, 4000 PPM 6 HR/D, 5 D/WK FOR 102 WK, Dose: 0, 2000, 4000 PPM 6 HR/D, 5 D/WK FOR 102 WK, Tumor Site: Type of Lesion: LUNG: ALVEOLAR/BRONCHIOLAR ADENOMA, ALVEOLAR/BRONCHIOLAR CARCINOMA, LIVER: HEPATOCELLULAR ADENOMA, HEPATOCELLULAR CARCIN active; positive | Species: RAT, Strain/Sex: F344/FEMALE, Route: INHALATION, Dose: 0, 1000, 2000, 4000 PPM 6 HR/D, 5 D/WK FOR 102 WK, Dose: 0, 1000, 2000, 4000 PPM 6 HR/D, 5 D/WK FOR 102 WK, Tumor Site: Type of Lesion: MAMMARY GLAND: FIBROADENOMA, ADENOMA OR FIBROADENOMA, HEMATOPOIETIC SYSTEM (LEUKEMIA): MONONUCLEAR CELL LEUKEMIA active; positive | Species: RAT, Strain/Sex: F344/MALE, Route: INHALATION, Dose: 0, 1000, 2000, 4000 PPM 6 HR/D, 5 D/WK FOR 102 WK, Dose: 0, 1000, 2000, 4000 PPM 6 HR/D, 5 D/WK FOR 102 WK, Tumor Site: Type of Lesion: MAMMARY GLAND: FIBROADENOMA, ADENOMA OR FIBROADENOMA, TUNICA VAGINALIS: MESOTHELIOMA, MULTIPLE SITES: MESOTHELIOMA, Tumor Site: Type of Lesion: MAMMARY GLAND: FIBROADENOMA, ADENOMA OR FIBROADENOMA, TUNICA VAGINALIS: MESOTHELIOMA, MULTIPLE SITES: MESOTHELIOMA active; positive | Species: RAT, Strain/Sex: SPRAGUE-DAWLEY/MALE, Route: INHALATION, Dose: 0, 500, 1500, 3500 PPM IN AIR 6H/D 5D/WK FOR 104 WK (STUDY DURATION: 2 YR), Dose: 0, 500, 1500, 3500 PPM IN AIR 6H/D 5D/WK FOR 104 WK (STUDY DURATION: 2 YR), Tumor Site: Type of Lesion: SALIVARY GLAND: SARCOMA active; positive

O=CNc1nc(-c2ccc([N+](=O)[O-])o2)cs1
active: Species: DOG, Route: ORAL, Tumor Site: Type of Lesion: URINARY BLADDER, GALL BLADDER active; positive | Species: MOUSE, Route: ORAL, Tumor Site: Type of Lesion: URINARY BLADDER active; positive | Species: MOUSE, Strain/Sex: CD-1/FEMALE, Route: ORAL, Dose: 0, 0.1% IN DIET FOR 36 WK (STUDY DURATION: 81 WK), Tumor Site: Type of Lesion: BLADDER: TRANSITIONAL CELL CARCINOMA, SPINDLE CELL TUMOR, SQUAMOUS CELL CARCINOMA active; positive | Species: MOUSE, Strain/Sex: CD-1/MALE, Route: ORAL, Dose: 0, 0.1% IN DIET FOR 40 WK (STUDY DURATION: 70 WK), Tumor Site: Type of Lesion: BLADDER: TRANSITIONAL CELL CARCINOMA, SPINDLE CELL TUMOR, SQUAMOUS CELL CARCINOMA active; positive | Species: RAT, Route: ORAL, Tumor Site: Type of Lesion: KIDNEY, MAMMARY GLAND active; positive | Species: RAT, Strain/Sex: F344/MALE, Route: ORAL, Dose: 0.001-0.2% IN DIET FOR 30 WK, Tumor Site: Type of Lesion: URINARY BLADDER: CARCINOMA active; positive | Species: RAT, Strain/Sex: SPRAGUE-DAWLEY/FEMALE, Route: ORAL, Dose: 0, 0.188% IN DIET FOR 20 WK FOLLOWED BY CONTROL DIET FOR 20 WK (STUDY DURATION: 40 WK), Tumor Site: Type of Lesion: BLADDER: TRANSITIONAL CELL CARCINOMA active; positive | Species: RAT, Strain/Sex: SPRAGUE-DAWLEY/FEMALE, Route: ORAL, Dose: 0.188% IN DIET FOR 20 WK THEN BASAL DIET FOR 20 WK, Tumor Site: Type of Lesion: URINARY BLADDER: TRANSITIONAL CELL CARCINOMA active; positive
